According to patent publication US20250002507A1, “7,8-DIHYDRO-5H-1,6-NAPHTHYRIDINE DERIVATIVES AS POSITIVE ALLOSTERIC MODULATORS OF THE MUSCARINIC ACETYLCHOLINE RECEPTOR M4 FOR TREATING NEUROLOGICAL AND PSYCHIATRIC DISORDERS” (Vanderbilt University, priority 2021, published 2025):

Tests used:
Human M4 = target: T1, Human M4 (Homo sapiens, UniProt P08173); experiment: mAChR M4 cell-based functional assay (calcium flux, potentiation of EC20 acetylcholine response), hM4-Gqi5 CHO-K1 cells; conditions: Table 4; for Emax at 30 µM: CHO-K1, Human M4, % ACh maximum at 30 μM, read-out: Emax (% ACh maximum at 30 μM); for EC50: potentiation of EC20 acetylcholine response, calcium flux, CHO-K1 cells, read-out: Human M4 EC50
T1 construct: expressed in transfected cells
T1 sequence (P08173 1-479): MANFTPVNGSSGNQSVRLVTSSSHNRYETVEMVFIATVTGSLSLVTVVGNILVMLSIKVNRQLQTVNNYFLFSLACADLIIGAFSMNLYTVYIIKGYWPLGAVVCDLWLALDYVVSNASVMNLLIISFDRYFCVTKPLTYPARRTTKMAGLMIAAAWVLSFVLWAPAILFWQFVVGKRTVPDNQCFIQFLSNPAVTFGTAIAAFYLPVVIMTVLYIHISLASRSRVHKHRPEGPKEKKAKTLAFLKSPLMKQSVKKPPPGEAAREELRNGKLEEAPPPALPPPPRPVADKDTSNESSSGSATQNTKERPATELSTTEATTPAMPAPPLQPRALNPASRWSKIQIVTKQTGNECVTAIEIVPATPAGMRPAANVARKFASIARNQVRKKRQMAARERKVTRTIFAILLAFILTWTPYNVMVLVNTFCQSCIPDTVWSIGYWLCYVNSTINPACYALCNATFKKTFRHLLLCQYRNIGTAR
Procedure, shortened: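 CHO-K1 cells stably expressing human M4 with chimeric Gqi5, loaded with Fluo-4 AM 50 min at 37 °C; calcium flux read by FDSS. 11-point 1:3 compound curves added, then EC20 acetylcholine at 144 s; potentiation of the EC20 response fitted by four-parameter logistic to give EC50 and Emax.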

patients = patients treated with AChE inhibitor; cited from earlier work
[1] = test system: Alzheimer's disease patients; conditions: Bodick et al. 1997; cited from earlier work

| SMILES | Emax at 30 µM (Human M4) [%] | EC50 (Human M4) [µM] | elevated liver transaminases, share of patients (patients) | effect on psychotic behavioral symptoms [1] |
| --- | --- | --- | --- | --- |
| Cc1cnccc1Nc1cnc2c(c1)CN(c1nn3cnnc3cc1C)CC2 [Compound 364, 6-(7-methyl-[1,2,4]triazolo[4,3-b]pyridazin-6-yl)-N-(3-methylpyridin-4-yl)-5,6,7,8-tetrahydro-1,6-naphthyridin-3-amine] | 83 | 2.5 |  |  |
| Cc1cnccc1Nc1cnc2c(c1)CN(c1nn3cnnc3c(C)c1C)CC2 [Compound 365, 6-(7,8-dimethyl-[1,2,4]triazolo[4,3-b]pyridazin-6-yl)-N-(3-methylpyridin-4-yl)-5,6,7,8-tetrahydro-1,6-naphthyridin-3-amine] | 63 | 0.112 |  |  |
| Nc1c2c(nc3ccccc13)CCCC2 [tacrine] |  |  | about 30% |  |
| CCCCCCOc1nsnc1C1=CCCN(C)C1 [xanomeline] |  |  |  | reduce psychotic behavioral symptoms |

The next lines start with results.

| Emax at 30 µM (Human M4) [%] | EC50 (Human M4) [µM] | SMILES | elevated liver transaminases, share of patients (patients) | effect on psychotic behavioral symptoms [1] |
| --- | --- | --- | --- | --- |
| 97 | 0.051 | Cc1cc(Nc2cnc3c(c2)CN(c2nn4cnnc4cc2C)CC3)c(F)cn1 [Compound 362, N-(5-fluoro-2-methylpyridin-4-yl)-6-(7-methyl-[1,2,4]triazolo[4,3-b]pyridazin-6-yl)-5,6,7,8-tetrahydro-1,6-naphthyridin-3-amine] |  |  |
| 93 | 0.026 | Cc1cc(Nc2cnc3c(c2)CN(c2nn4cnnc4c(C)c2C)CC3)c(F)cn1 [Compound 363, 6-(7,8-dimethyl-[1,2,4]triazolo[4,3-b]pyridazin-6-yl)-N-(5-fluoro-2-methylpyridin-4-yl)-5,6,7,8-tetrahydro-1,6-naphthyridin-3-amine] |  |  |
